Where two headings read alike, the source gives them in different places.
Legend:
mu opioid receptor [1] = target: T1, mu opioid receptor (Homo sapiens, UniProt P35372); assay: Beta-arrestin recruitment assay (DiscoveRx PathHunter); format: cell-based; parameters: host or cells: U2OS cells
Description: The ability of agonists to cause recruitment of beta-arrestin to the mu opioid receptor was measured using DiscoveRx PathHunter technology. A pro-linked tagged mu-opioid receptor and an EA-tagged beta-arrestin were expressed in U20S cells and beta-arrestin recruitment measured following the methodology in McGuinness et al., 2009 (J Biomol Screen 14:49-58, Characterizing cannabinoid CB2 receptor ligands using DiscoverRx PathHunter beta-arrestin assay—McGuinness D., Malikzay A., Visconti R., Lin K., Bayne M., Monsma F., Lunn C A.)
Data appear in the Table below under “arrestin EC50” in nM.
Target sequence in this assay (P35372 whole entry, species assumed): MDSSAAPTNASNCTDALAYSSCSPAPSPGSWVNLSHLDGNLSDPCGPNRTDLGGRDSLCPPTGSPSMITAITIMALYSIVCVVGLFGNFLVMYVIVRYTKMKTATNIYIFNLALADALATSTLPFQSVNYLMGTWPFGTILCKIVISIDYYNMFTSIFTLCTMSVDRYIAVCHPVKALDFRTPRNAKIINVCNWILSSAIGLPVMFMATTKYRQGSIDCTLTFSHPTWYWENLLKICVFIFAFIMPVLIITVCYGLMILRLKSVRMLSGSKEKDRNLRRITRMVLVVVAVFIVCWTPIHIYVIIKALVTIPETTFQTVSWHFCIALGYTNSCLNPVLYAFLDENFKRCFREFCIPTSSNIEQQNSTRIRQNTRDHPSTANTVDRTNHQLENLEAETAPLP
Target sequence in this assay (P32121 whole entry partner, species assumed): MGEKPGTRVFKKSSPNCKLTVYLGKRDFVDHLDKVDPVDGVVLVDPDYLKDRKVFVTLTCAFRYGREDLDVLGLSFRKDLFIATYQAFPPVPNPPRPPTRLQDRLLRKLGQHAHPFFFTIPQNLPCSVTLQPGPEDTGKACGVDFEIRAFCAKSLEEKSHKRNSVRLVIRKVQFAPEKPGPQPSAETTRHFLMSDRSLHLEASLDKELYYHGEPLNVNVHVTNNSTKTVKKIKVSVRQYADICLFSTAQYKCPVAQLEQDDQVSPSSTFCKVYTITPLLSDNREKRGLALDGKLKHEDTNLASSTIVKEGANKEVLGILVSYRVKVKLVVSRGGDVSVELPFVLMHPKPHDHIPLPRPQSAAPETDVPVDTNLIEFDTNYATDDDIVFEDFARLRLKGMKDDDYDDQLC

mu opioid receptor [2] = target: T1, mu opioid receptor; assay: Inhibition of forskolin stimulated cAMP production (alphascreen); format: cell-based; parameters: expressed in transfected cells; host or cells: CHO cells
Description: Forskolin Stimulated cAMP
The ability of mu opioid receptor agonists to inhibit forskolin stimulated cAMP production was measured in CHO cells recombinantly expressing the mu opioid receptor, using alphascreen technology as described in Nickolls et al., 2005, with the additional inclusion of 50 uM forskolin in the assay buffer. (J Pharmacol Exp Ther 313; 1281-88, Functional selectivity of melanocortin 4 receptor peptide and non-peptide agonists: Evidence for ligand specific conformational states. Nickolls S A., Fleck B., Hoare S., Maki R.)
Data appear in the Table below under “mu-opioid IC50” in nM.
Target sequence in this assay (P35372 whole entry, species assumed): as the sequence (P35372 whole entry, species assumed) above

[3] = Human liver microsomal stability assay (HLM); format: in vitro ADME; settings: 37° C., 1 h time course, read-out: HLM clearance
Excerpt: (§1) In vitro measurement of substrate metabolism can be determined using the microsomal cytochrome P450 mono-oxygenase system. This is a useful application in ranking clearance of a number of compounds by Phase I (including cytochrome P450) metabolism prior to in vivo assessment Measurement of intrinsic clearance using these methods also allows a comparison of species difference to be made to assist with translation of pharmacokinetic parameters from preclinical to clinical study.
(§2) Rat and Human Liver Microsomal Stability Assay (RLM and HLM Respectively)
(§3) Human and rat Liver microsomal assays were performed using pooled microsomes from the Pfizer Global Supply (BD Gentest™). Chemical reagents were purchased from commercial sources (Sigma-Aldrich) and drug entities synthesised at Pfizer Global Research. Incubation mixtures contained 50 mM phosphate buffer pH 7.4, 5 mM MgCl2, 5 mM isocitric acid and 1 unit/ml isocitric dehydrogenase. The microsomes were defrosted at room temperature and sufficient volumes added to give a final concentration of 0.5 nmol cytochrome P450/ml. Following the addition of 1 μM of substrate, the incubation was pre-incubated at 37° C. for 5 minutes. The reaction was then initiated by the addition of 1 mM NADP and incubation aliquots are taken over a 1 h time course. The reaction was subsequently stopped by addition of acetonitrile cooled on ice. The incubation mixture was then centrifuged and the supernatant removed for injection onto LC-MS/MS system. Providing that the substrate concentration is below the Km, the metabolism should be first order giving a log-linear plot of substrate disappearance over time. The gradient of this line is the first order rate constant (k) and this maybe converted to estimate a substrates intrinsic clearance when factoring in the protein concentration.
(§4) The intrinsic clearance in rat or human liver microsomes is calculated from:
(§5) Where, k=−slope of Ln concentration vs. time (min−1)

[4] = Rat liver microsomal stability assay (RLM); format: in vitro ADME; settings: 37° C., 1 h time course, read-out: RLMclearance
Excerpt: as §1, §2, §3, §4, §5

[5] = octanol / 0.1M phosphate buffer pH 7.4, positive controls; cited from earlier work
physchem = settings: pH 7.4
Description: LogD octanol (pH 7.4) is a measure of lipophilicity that accounts for both hydrophobic and hydrogen-bonding interactions of a given substrate. This assay is based on shake-flask methodology, performed in a fully automated manner in a 0.1M phosphate buffer pH7.4—octanol system.
After addition of the test substance in DMSO stock solution to the mixture and vigorous agitation followed by separation of the octanol and buffer layers by centrifugation, duplicate samples are removed from each layer and diluted prior to analysis by LC-MS/MS.
The duplicate log D values must be with 0.4 log units of each other and the positive controls must be within 0.2 log units of the known log D value.

[6] = U20S cells expressing pro-linked tagged mu-opioid receptor and EA-tagged beta-arrestin, read-out: β-Arrestin EC50
[7] = CHO cells recombinantly expressing the mu opioid receptor, 50 uM forskolin, read-out: mu-opioid IC50
[8] = pH 7.4, human liver microsomes, 1 μM substrate
[9] = pH 7.4, rat liver microsomes, 1 μM substrate

SMILES | EC50 (mu opioid receptor [1]; [6]) | microsomal CLint at 1 μM [3, 8] | microsomal CLint at 1 μM [4, 9] | EC50 (mu opioid receptor [1]) | logD (physchem) | other results
Cc1cc(O)cc(C)c1C[C@H](NC(=N)N)C(=O)N[C@H](C)C(=O)NC[C@@H](N)Cc1ccccc1 [Example 9] | 0.0552 µM | 13.6 µL/min/mg | 12.9 µL/min/mg |  |  | IC50 (mu opioid receptor [2]; [7]): 0.0153 µM
Cc1cc(O)cc(C)c1C[C@H](N=C(N(C)C)N(C)C)C(=O)N[C@H](C)C(=O)NC[C@H](Cc1ccccc1)NC(=N)N [Example 3] |  |  |  | 10 µM |  | 
Cc1cc(O)cc(C)c1C[C@H](NC(=N)N)C(=O)N[C@H](C)C(=O)NC[C@H](Cc1ccccc1)NC(=O)CCNC(=N)N [Example 6] |  | 8 µL/min/mg | 8.5 µL/min/mg | 0.162 µM |  | 
CN(C)CCC=C1c2ccccc2CCc2ccccc21 [amitriptyline] |  |  |  |  |  | log D (known value of positive control) [5]: 2.7±0.2
Cc1cc(O)cc(C)c1C[C@H](NC(=N)N)C(=O)N[C@H](C)C(=O)NC[C@H](Cc1ccccc1)NC(=N)N [Example 1, N-[Amino(imino)methyl]-2,6-dimethyl-L-tyrosyl-N-[(2S)-2-{[amino(imino)methyl]amino}-3-phenylpropyl]-D-alaninamide] | 0.0414 µM | 10.6 µL/min/mg | 8.5 µL/min/mg |  | -0.2 | IC50 (mu opioid receptor [2]; [7]): 0.026 µM
Cc1cc(O)cc(C)c1C[C@H](NC(=N)N)C(=O)N[C@H](C)C(=O)NCC(CNC(=N)N)Cc1ccccc1 (mixture of isomers) [Example 2] | 0.0348 µM | 15.9 µL/min/mg | 8.5 µL/min/mg |  | -0.7 | 
Cc1ncc2n1-c1ccc(Cl)cc1C(c1ccccc1F)=NC2 [midazolam] |  |  |  |  |  | log D (known value of positive control) [5]: 3.3±0.2
CC(=O)N[C@H](CNC(=O)[C@@H](C)NC(=O)[C@H](Cc1c(C)cc(O)cc1C)NC(=N)N)Cc1ccccc1 [Example 8] |  | 15.4 µL/min/mg | 12.1 µL/min/mg |  | -0.35 | IC50 (mu opioid receptor [2]; [7]): 0.0266 µM
Cc1cc(O)cc(C)c1C[C@H](NC(=N)N)C(=O)N[C@H](CC[S+](C)[O-])C(=O)NC[C@H](Cc1ccccc1)NC(=N)N (stereo partly drawn) [Example 10, N-alpha-[amino(imino)methyl]-N-[(1R)-1-{[(2S)-2-{[amino(imino)methyl]amino}-3-phenypropyl]carbamoyl}-3-(methylsulfinyl)propyl]-2,6-dimethyl-L-tyrosinamide bis-trifluoroacetate] | 0.0176 µM |  |  |  |  | 
Cc1cc(O)cc(C)c1C[C@H](NC(=N)N)C(=O)N[C@H](C)C(=O)NCCCc1ccccc1 [Example 11, (S)-2-Guanidino-3-(4-hydroxy-2,6-dimethyl-phenyl)-N-[(R)-1-(3-phenyl-propylcarbamoyl)-ethyl]-propionamide] |  |  |  |  |  | logD (physchem; octanol / 0.1 M phosphate buffer): -0.1; IC50 (mu opioid receptor [2]): 0.00859 µM; microsomal CLint at 1 μM ([3]; pooled human liver microsomes, pH 7.4, 1 μM substrate): 74 µL/min/mg; microsomal CLint at 1 μM ([4]; pooled rat liver microsomes, pH 7.4, 1 μM substrate): 61 µL/min/mg
Cc1cc(O)cc(C)c1C[C@H](NC(=N)N)C(=O)N[C@H](C)C(=O)NC[C@H](Cc1ccccc1)NC(=O)CNC(=N)N [Example 5] | 0.0476 µM |  |  |  |  | 
Cc1cc(O)cc(C)c1C[C@H](NC(=N)N)C(=O)N[C@H](CCCCCC(=O)O)C(=O)NCCCc1ccccc1 [Example 7] |  | 8.61 µL/min/mg | 9.48 µL/min/mg | 2.46 µM | 0.8 | IC50 (mu opioid receptor [2]): 0.116 µM
C[C@@H](NC(=O)[C@H](Cc1ccc(O)cc1)NC(=N)N)C(=O)NC[C@H](Cc1ccccc1)NC(=N)N [Example 4] |  | 9.54 µL/min/mg | 13.4 µL/min/mg | 5.07 µM | -0.3 | 
